Values joined by “and” are separate entries in the source; they are usually repeats but may differ in a detail not shown here. Equal values may be shown once. Where a name gives a salt, the structure may show the parent alone. Read-outs that look alike come from different tables or passages of the source.
Experiments:
[1] = Water solubility; format: physicochemical; details: for solubility: water
[2] = found by V. H. Wallingford; cited from earlier work
[3] = prior art; cited from earlier work
[4] = Acute Intravenous Toxicity Studies in Mice; format: in vivo; details: mouse, in vivo, iv, meglumine salt solution, 28.27% iodine, lateral tail vein, 1 ml/min, seven day observation; read-out: LD50 I.V. (Mice)
Description: (§1) Satisfactory intravenous urograms are obtained when any of the preparations described in Examples 28-32 is administered to dogs at a dosage of 350 mg. I/kg. Toxicity evaluations by three different techniques were carried out on solutions of the meglumine salts of three 5-acetamido-N-[poly(hydroxyalkyl)alkyl]2,4,6-triiodoisophthalamic acids of the invention. The techniques utilized are outlined below.
(§2) Swiss Albino mice (Charles River) were dosed in the lateral tail vein with solutions of the iodinated compound containing 28.27% of iodine, injected at the rate of 1 ml/min. […] The LD50 values were calculated by the method of Litchfield and Wilcoxon (J. of Pharmac. and Exptl. Therap. 96: 99-113, 1949).

[5] = tested on: mice; assay: Intracerebral Toxicity in Mice; format: in vivo, Swiss Albino mice (Charles River); details: meglumine salt solution, seven day observation
Description: as §1
Swiss Albino mice (Charles River) were used. Fixed volumes of solutions of various concentrations of the iodinated compounds were injected intracerebrally via a 27 gauge needle, (1/4 inch length) according to the method of Haley, et al. (Br. J. of Pharmac. 12:12-15, 1957). The animals were observed immediately after injections and daily throughout a seven day observation period. The LD50 values were calculated by the method of Litchfield and Wilcoxon (J. of Pharmac. and Exptl. Therap. 96:99-113, (1949).

[6] = tested on: rats; assay: Intracisternal Toxicity in Rats; format: in vivo, Sprague Dawley (Carworth) rats; details: meglumine salt solution, two day observation
Description: as §1
Sprague Dawley (Carworth) rats were used. The method used was a variation of the procedure outlined by Melartin et al. (Invest. Rad. 5:13-21, 1970). After dosing, the animals were housed individually, and observed for immediate reactions and periodically for a two day observation period. The LD50 values were calculated according to the method of Litchfield and Wilcoxon, (J. of Pharmac. and Exptl. Therap. 96:99-115, 1949).

[7] = tested on: mice; assay: Acute Intravenous Toxicity Studies in Mice; format: in vivo; details: meglumine salt solution, 28.27% iodine, lateral tail vein, 1 ml/min, seven day observation; 10080 min
Description: as §1, §2

[8] = temperature not stated, read-out: solubility

For `CC(=O)Nc1c(I)c(C(=O)[O-])c(I)c(C(=O)NC(COC(C)=O)(COC(C)=O)COC(C)=O)c1I.[Na+]`, the solubility ([1]; sodium salt powder, read-out: solubility in water) was ≥ 1000 mg/mL.
Molecule `COCC(=O)Nc1c(I)c(C(=O)[O-])c(I)c(C(=O)NC(CO)(CO)CO)c1I.[Na+]` has a solubility ([1]; sodium salt, 25° C., read-out: solubility in water) of ~674 mg/mL.
In the case of `CC(=O)Nc1c(I)cc(I)c(C(=O)[O-])c1I.[Na+]`, the “water solubility (in words)” value [2] is listed as “unexpectedly high” and the “toxicity (in words)” value [3] is listed as “unexpectedly low”.
For `CC(=O)Nc1c(I)c(C(=O)O)c(I)c(C(=O)NCCO)c1I` [5-acetamido-2,4,6-triiodo-N-(2-hydroxyethyl)-isophthalamicacid, reference compound], the LD50 at 168 h [4] was 5810 mg/kg, the “LD50 Intracerebral (Mice)” value [5] was 174 mg. contained iodine/kg. anima and the “LD50 Intracisternal (Rats)” value [6] was 49 mg. contained iodine/kg. anima.
For `CC(=O)Nc1c(I)c(C(=O)O)c(I)c(C(=O)NC(CO)(CO)CO)c1I` [Example 7, meglumine salt of 5-acetamido-N-[tris(hydroxymethyl)methyl]-2,4,6-triiodoisophthalamic acid], the solubility [1, 8] was > 600 mg/mL.
With `CC(=O)Nc1c(I)c(C(=O)O)c(I)c(C(=O)NC(C)(CO)CO)c1I` [Example 10, 5-Acetamido-N-[2-(1,3-dihydroxy-2-methyl) Propyl]-2,4,6-triiodoisophthalamic Acid] the LD50 at 168 h [4] was 4650 mg/kg, the “LD50 Intracerebral (Mice)” value [5] was 790 mg. contained iodine/kg. anima and the “LD50 Intracisternal (Rats)” value [6] was 242 mg. contained iodine/kg. anima.
For `CC(=O)Nc1c(I)c(C(=O)O)c(I)c(C(=O)NC(C)(CO)CO)c1I` [Example 11, 5-Acetamido-N-[2-(1,3-dihydroxy-2-methyl)-propyl]-2,4,6-triiodoisophthalamic Acid, Sodium Salt], the solubility [1, 8] was ~820 mg/mL.
With `CC(=O)Nc1c(I)c(C(=O)O)c(I)c(C(=O)NC(C)(COC(C)=O)COC(C)=O)c1I` [Example 23, Sodium 5-acetamido-N-[(1,3-diacetoxy-2-methyl)-2-propyl]-2,4,6-triiodoisophthalamate] the “crystallization of aqueous solution on standing” value ([1]; 102.5% w/v solution, room temperature) was “No crystallization occurred” and the solubility [1, 8] was > 1000 mg/mL.
With `COCC(=O)Nc1c(I)c(C(=O)O)c(I)c(C(=O)NC(CO)(CO)CO)c1I` [Example 26(d), 2,4,6-Triiodo-5-methoxyacetamido-N-[tris(hydroxymethyl)methyl]isophthalamic Acid] the “LD50 Intracerebral (Mice)” value [5] was ~650 mg. contained iodine/kg. anima and the “LD50 Intracisternal (Rats)” value [6] was ~150 mg. contained iodine/kg. anima.
In the case of `CC(=O)Nc1c(I)c(C(=O)O)c(I)c(C(=O)NC(CO)(CO)CO)c1I` [Examples 4(A) and 5, 5-Acetamido-N-[tris(hydroxymethyl)methyl]-2,4,6-triiodoisophthalamic Acid], the LD50 at 168 h [4] is reported as 6150 mg/kg, the “LD50 I.V. (Mice)” value [7] is reported as 6200 mg. contained iodine/kg. anima and the “LD50 Intracerebral (Mice)” value [5] is reported as 700 mg. contained iodine/kg. anima and 638 mg. contained iodine/kg. anima. For the same molecule, the “LD50 Intracisternal (Rats)” value [6] was 151 mg. contained iodine/kg. anima.
In the case of `CNC(=O)c1c(I)c(NC(C)=O)c(I)c(C(=O)O)c1I` [Iothalamic Acid, 5-acetamido-2,4,6-triiodo-N-methylisophthalamic acid, reference compound], the LD50 at 168 h [4] is reported as 5740 mg/kg, the “LD50 Intracerebral (Mice)” value [5] is reported as 280 mg. contained iodine/kg. anima and the “LD50 Intracisternal (Rats)” value [6] is reported as 86 mg. contained iodine/kg. anima.
For `CC(=O)Nc1c(I)c(NC(C)=O)c(I)c(C(=O)O)c1I` [diatrizoic acid, 3,5-diacetamido-2,4,6-triiodobenzoic acid], the “toxicity (in words)” value [3] is listed as “still further reduced toxicity as compared with acetrizoic acid”.
Molecule `Nc1c(I)c(C(=O)O)c(I)c(C(=O)NC(CO)(CO)CO)c1I` [sodium salt of 5-amino-N-[tris-(hydroxymethyl)methyl]-2,4,6-triiodoisophthalamic acid] has a solubility ([1]; sodium salt, temperature not stated, read-out: water solubility) of ~800 mg/mL.
Molecule `CC(CO)(CO)NC(=O)c1c(I)c(N)c(I)c(C(=O)O)c1I` [sodium salt of Example 9] has a solubility [1, 8] of ~930 mg/mL.

Source: patent publication US4138589A, “Substituted isophthalamic acids” (Mallinckrodt, Inc., priority 1977, dated 1979)
